Results taken from patent US20230364273A1, “AGENT FOR DETECTING INTERACTION BETWEEN TISSUES AND ORGANS” (HAMAMATSU PHOTONICS K.K., priority 2020, published 2023).

Tested on: mitochondrial complex I (MC-I)
Experiment: PET measurement of the amount (SUV) of MC-I probe accumulated in each tissue and organ of type 2 diabetes model rats (Test Examples 1 and 2)
Assay type: in vivo
Conditions: brain, heart, brown adipocytes, pancreas, liver, kidneys; 5, 8, 16, 26 weeks of age; i.v. about 20 MBq; except brown adipocytes and kidneys at 5 weeks of age (FIG. 4)
Description: Male Zucker Leprfa/Leprfa rats (hereinafter also referred to as “fatty rats”) that develop pathological conditions similar to type 2 diabetes of human adults and male Zucker Leprfa/+ rats (hereinafter also referred to as “lean rats”) as controls thereof were purchased from Charles River Laboratories Japan, Inc., and used for PET measurement at 5, 8, 16, and 26 weeks of age, and the amount of [^18F]BCPP-BF accumulated in each tissue and organ (brain, heart, kidneys, liver, and brown adipocytes (brown adipose tissue)) was measured.
The rats were anesthetized with isoflurane and fixed in a gantry of an animal PET camera (SHR-38000, manufactured by Hamamatsu Photonics K.K.). […]
After the completion of the PET measurement, a region of interest was set on the pancreas identified by an integrated PET image 40 to 60 minutes after the administration of D-[^11C]MT, and the amount of [^18F]BCPP-BF accumulated in the region of interest was calculated. Subsequently, the calculated accumulation amount was normalized by the amount of radioactivity administered and the body weight of each individual and defined as an amount (amount (SUV) of radioactivity accumulated) of [^18F]BCPP-BF accumulated in the pancreas. […] The amount (SUV) of radioactivity accumulated in the brain was calculated by excising the brains from the rats immediately after the PET measurement. […]

CC(C)(C)n1ncc(OCc2ccc(OCCCC[18F])nc2)c(Cl)c1=O [[^18F]BCPP-BF]
accumulation amount (SUV) in each tissue and organ, fatty rats versus lean rats: significantly lower
